Source: article PMC8141582, “Synergistic Effect of Statins and Abiraterone Acetate on the Growth Inhibition of Neuroblastoma via Targeting Androgen Receptor” (Frontiers in Oncology, 2021)
Read-outs that look alike come from different tables or passages of the source.

Legend:
[1] = system: HCT116 p53 +/+ or p53 -/- cells; parameters: method as in Supplement [12]; key: Positive: Simvastatin alone inhibited the progression of cancer; Negative: Simvastatin alone could not inhibit the progression of cancer; settings: Colorectal Cancer, 20.0 mg/kg/day, i.p.; ref Supplement [12]; cited from earlier work
[2] = system: HL7702 cells; assay: MTT cell viability assay, HL7702; assay type: cell-based; settings: Homo sapiens, L02, normal cell line, 72 h
Method: (§1) Statins dissolved in DMSO and AA dissolved in ethanol. After 72 h treatment, the medium was added 0.5 mg/ml MTT reagent and incubated at 37°C for 4 h. Subsequently, the supernatant was aspirated, and cells were lysed in 150 µl DMSO, then shaken 10 min at 37°C. The optical density (OD) was measured at 570 and 630 nm using a plate reader.

[3] = system: HUVEC cells; assay: MTT cell viability assay, HUVEC; assay type: cell-based; settings: Homo sapiens, normal cell line, 72 h
Method: as §1

[4] = system: SH-SY5Y cells; assay: MTT cell viability assay, SH-SY5Y; assay type: cell-based; settings: Homo sapiens, NB cell line, 72 h
Method: (§2) N2a, SH-SY5Y, SK-N-BE (2), 10A, HUVEC, HL7702 cells were plated in 96-well plates at 8,000 cells/well, respectively, in complete media in triplicate wells for each dose and cultured for 18 h. The neuroblastoma cell lines, N2a, SH-SY5Y, and SK-N-BE (2), and non-cancer cell lines, 10A, HUVEC, and HL7702, were treated with simvastatin and fluvastatin in a range of doses from 0 to 20 μM and with AA from 0 to 30 μM; N2a, SH-SY5Y SK-N-BE (2), were treated with rosuvastatin in a range of doses from 0 to 100 μM for 72 h. Statins dissolved in DMSO and AA dissolved in ethanol. After 72 h treatment, the medium was added 0.5 mg/ml MTT reagent and incubated at 37°C for 4 h. Subsequently, the supernatant was aspirated, and cells were lysed in 150 µl DMSO, then shaken 10 min at 37°C. The optical density (OD) was measured at 570 and 630 nm using a plate reader.

[5] = system: SK-N-BE (2) cells; assay: MTT cell viability assay, SK-N-BE (2); assay type: cell-based; settings: Homo sapiens, SKNBE2, NB cell line, 72 h
Method: as §2

[6] = system: A498 cells; parameters: method as in Supplement [14]; key: Positive: Simvastatin alone inhibited the progression of cancer; Negative: Simvastatin alone could not inhibit the progression of cancer; settings: Renal Cancer, 5.0 mg/kg/day, oral; ref Supplement [14]; cited from earlier work
[7] = system: A549 cells; parameters: method as in Supplement [5]; key: Positive: Simvastatin alone inhibited the progression of cancer; Negative: Simvastatin alone could not inhibit the progression of cancer; settings: Lung Adenocarcinoma, 10.0 mg/kg/day, i.v; ref Supplement [5]; cited from earlier work
[8] = system: SW 480 cells; parameters: method as in Supplement [10]; key: Positive: Simvastatin alone inhibited the progression of cancer; Negative: Simvastatin alone could not inhibit the progression of cancer; settings: Colorectal Cancer, 6.0 mg/kg/day, oral; ref Supplement [10]; cited from earlier work
[9] = system: HLMC cells from the primary patients; parameters: method as in Supplement [4]; key: Positive: Simvastatin alone inhibited the progression of cancer; Negative: Simvastatin alone could not inhibit the progression of cancer; settings: Lung Carcinoma, 50.0 mg/kg/day, oral; ref Supplement [4]; cited from earlier work
[10] = system: 10A cells; assay: MTT cell viability assay, 10A; assay type: cell-based; settings: Homo sapiens, normal cell line, 72 h
Method: as §1

[11] = system: MDA-MB-231 cells; parameters: key: Positive: Simvastatin alone inhibited the progression of cancer; Negative: Simvastatin alone could not inhibit the progression of cancer; settings: Breast Cancer, cited from earlier work
[12] = system: specimens of T-ALL patients; parameters: method as in Supplement [25]; key: Positive: Simvastatin alone inhibited the progression of cancer; Negative: Simvastatin alone could not inhibit the progression of cancer; settings: Pediatric Acute Lymphoblastic Leukemia, 20.0 mg/kg/day, oral; ref Supplement [25]; cited from earlier work
[13] = system: Caki-1-staR cells; parameters: method as in Supplement [13]; key: Positive: Simvastatin alone inhibited the progression of cancer; Negative: Simvastatin alone could not inhibit the progression of cancer; settings: Renal Cancer, 6.7 mg/kg/day, i.p.; ref Supplement [13]; cited from earlier work
[14] = system: HepG2 cells; parameters: method as in Supplement [7]; key: Positive: Simvastatin alone inhibited the progression of cancer; Negative: Simvastatin alone could not inhibit the progression of cancer; settings: Hepatocellular Carcinoma, 40.0 mg/kg/day, i.p.; ref Supplement [7]; cited from earlier work
[15] = system: KHOS or NP cells; parameters: method as in Supplement [24]; key: Positive: Simvastatin alone inhibited the progression of cancer; Negative: Simvastatin alone could not inhibit the progression of cancer; settings: Osteosarcoma, 10.0 mg/kg, route unknown; ref Supplement [24]; cited from earlier work
[16] = system: N2a cells; assay: Wound healing assay, N2a; assay type: cell-based, mouse; settings: 1.5 μM simvastatin, 48 h
Method: N2a, SH-SY5Y, and SK-N-BE (2) cells were cultured in six-well plates (5 × 10^5cells/well) and incubated till they reached 90–100% confluence. The cells were then maintained in phenol red-free DMEM/DMEM-F12 with 2.5%FBS, in order to minimize the cell proliferation. A sterile 20 µl tip was used to create scratch wounds of the same width. The plates were then washed twice with phosphate-buffered saline (PBS) to remove the detached cells. Photos were taken at 0, 24, and 48 h, and the area covered by the cells enumerated the closure of the wounds. Each experiment was performed in triplicate.

[17] = system: LAPC-4 cells; parameters: method as in Supplement [16]; key: Positive: Simvastatin alone inhibited the progression of cancer; Negative: Simvastatin alone could not inhibit the progression of cancer; settings: Prostate Cancer, 11.0 mg/kg/day, s.c.; ref Supplement [16]; cited from earlier work
[18] = system: HCT116 or HT29 cells; parameters: method as in Supplement [11]; key: Positive: Simvastatin alone inhibited the progression of cancer; Negative: Simvastatin alone could not inhibit the progression of cancer; settings: Colorectal Cancer, 50.0 mg/kg/day, oral; ref Supplement [11]; cited from earlier work

For CCC(C)(C)C(=O)O[C@H]1C[C@@H](C)C=C2C=C[C@H](C)[C@H](CC[C@@H]3C[C@@H](O)CC(=O)O3)[C@H]21 [Simvastatin], the “Results (simvastatin alone)” value [1] is given as “Positive”, the IC50 [2] is given as 20.6 µM and the IC50 [3] is given as 14.6 µM. The IC50 [4] was 9.69 µM, the IC50 [5] was 10.5 µM and the “Results (simvastatin alone)” value [6] was “Positive”. For the same compound, the “Results (simvastatin alone)” value [7] was “Positive”, the “Results (simvastatin alone)” value [8] was “Positive” and the “Results (simvastatin alone)” value [9] was “Positive”. The IC50 [10] was 26.7 µM, the “Results (simvastatin alone)” value ([11]; 5.0 mg/kg/day, i.v., ref Supplement [23]) was “Positive” and the “Results (simvastatin alone)” value ([11]; 5.0 mg/kg/day, route unknown, ref Supplement [21]) was “Positive”. For the same compound, the “Results (simvastatin alone)” value ([11]; 10.0 mg/kg/day, oral, ref Supplement [20]) was “Positive”, the “Results (simvastatin alone)” value ([11]; 200.0 mg/kg/day, oral, ref Supplement [22]) was “Positive” and the “Results (simvastatin alone)” value [12] was “Negative”. The “Results (simvastatin alone)” value [13] was “Negative”, the “Results (simvastatin alone)” value [14] was “Positive” and the “Results (simvastatin alone)” value [15] was “Positive”. The “migration vs control group” value [16] was “significantly higher”, the “Results (simvastatin alone)” value [17] was “Negative” and the “Results (simvastatin alone)” value [18] was “Positive”.
